“And” between values parts separate entries of the source, which are not always exact repeats. Equal entries are not always repeated. “Also recorded” adds a separate entry of the source.
What was measured:
Type in all cases: binding
USP7 [1] = molecular target: T1, USP7 (Homo sapiens, UniProt Q93009); experiment: Differential scanning fluorimetry (DSF), melting temperature shift of USP7; conditions: 8 µM protein, 250 µM compound (1:31.25)
T1 construct: USP7 catalytic domain (USP7CD) (208‐560); made in house
T1 sequence (Q93009 with tags, fused parts or gaps): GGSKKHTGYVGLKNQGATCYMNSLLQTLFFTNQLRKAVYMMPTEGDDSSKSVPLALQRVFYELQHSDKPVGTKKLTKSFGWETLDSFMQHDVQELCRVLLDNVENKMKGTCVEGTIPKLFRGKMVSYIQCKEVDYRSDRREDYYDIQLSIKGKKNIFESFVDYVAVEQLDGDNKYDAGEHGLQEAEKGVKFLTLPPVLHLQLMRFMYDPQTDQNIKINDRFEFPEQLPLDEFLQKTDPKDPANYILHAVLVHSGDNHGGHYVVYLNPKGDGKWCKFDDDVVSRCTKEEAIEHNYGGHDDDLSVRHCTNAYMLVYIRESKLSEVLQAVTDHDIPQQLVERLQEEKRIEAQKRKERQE
Excerpt: The influence of the synthesized compounds on the melting temperature (T m) of USP7 and its mutant USP7asoc (active site only cysteine) was investigated by DSF. USP7asoc only retains the catalytic Cys223 while all the other six cysteines are mutated to serine. DSF was selected for initial assessment since it is an efficient and rapid primary screening method readily available to our lab.
An important consideration when assessing covalent inhibitors is the time dependence of covalent target occupancy and thus potency, which is determined by the reaction kinetics of the covalent binding event. To allow for drawing conclusions on compounds with slower reaction kinetics, incubation times of 30 min, 4 h, and 24 h at 20°C were chosen for the DSF screen with USP7 (Table 1 and Figures 2 and 3). The threshold at which compounds were considered (de‐)stabilizers was defined at 0.5°C. In parallel, the intrinsic reactivity of a set of representative compounds was evaluated in a glutathione reactivity assay. […] Data obtained from the GSH reactivity studies are shown in Supporting Information S2: Table S2.1 and Figures S2.1–2.3.
The melting temperatures of USP7 and USP7asoc in the presence or absence of fragments were determined by DSF on a Qiagen Rotor‐Q Model‐5‐Plex HRM real‐time PCR instrument (Qiagen, Hilden, Germany). SYPRO Orange (Life Technologies Corporation, Eugene, OR, USA) was used as a fluorescent dye at a final concentration of 5x. The protein concentration was 8 µM, and the final compound concentration was 250 µM, corresponding to a protein‐to‐compound ratio of 1:31.25. All compounds were dissolved in dimethyl sulfoxide (DMSO) and the proteins in Tris buffer (25 mM Tris pH 8.0, 150 mM NaCl, 5 mM TCEP, 5% (v/v) DMSO). All measurements were performed after 30 min, 4 h, and 24 h of incubation and at least in triplicate. DSF experiments were carried out with a constant heating rate of 270°C/h. The temperature was ramped from 28°C to 60°C–70°C with excitation and emission filters set at 470 nm and 610 nm, respectively. The melting temperatures (T m) of USP7 and USP7asoc were determined from the maxima of the first derivatives of the melting curves in OriginPro2020 (OriginLab, Northampton, MA, USA). The ∆T m was calculated by subtraction of the T m of the protein sample with pure DMSO from the T m of the protein sample mixed with compound. Error propagation was used to average multiple runs for a compound. A compound was considered to be a hit if the shift in the ∆T m was at least 0.50°C [55].

[2] = molecular target: T2, USP7asoc (active site only cysteine) (Homo sapiens, UniProt Q93009, C300S/C315S/C334S/C478S/C488S/C510S); experiment: Differential scanning fluorimetry (DSF), melting temperature shift of USP7asoc mutant; conditions: 8 µM protein, 250 µM compound (1:31.25)
T2 construct: (208‐560, C300/315/334/448/478/510S); made in house
T2 sequence (Q93009 with tags, fused parts or gaps C300S/C315S/C334S/C478S/C488S/C510S): as the sequence (Q93009 with tags, fused parts or gaps) above, with C96S, C111S, C130S, C274S, C284S, C306S counted along it
Procedure: USP7asoc only retains the catalytic Cys223 while all the other six cysteines are mutated to serine. DSF was selected for initial assessment since it is an efficient and rapid primary screening method readily available to our lab. […] An important consideration when assessing covalent inhibitors is the time dependence of covalent target occupancy and thus potency, which is determined by the reaction kinetics of the covalent binding event. To allow for drawing conclusions on compounds with slower reaction kinetics, incubation times of 30 min, 4 h, and 24 h at 20°C were chosen for the DSF screen with USP7 (Table 1 and Figures 2 and 3). The threshold at which compounds were considered (de‐)stabilizers was defined at 0.5°C. In parallel, the intrinsic reactivity of a set of representative compounds was evaluated in a glutathione reactivity assay. […] The expression and purification of USP7 catalytic domain (USP7CD) (208‐560) and USP7asoc (active site only cysteine) by using a pET24a(+)_HLT_USP7 construct were performed as previously described. […] For the USP7asoc, six of the seven cysteines are mutated to serines (208‐560, C300/315/334/448/478/510S). All utilized protein sequences are depicted in Supporting Information S2: Table S.3.1. The melting temperatures of USP7 and USP7asoc in the presence or absence of fragments were determined by DSF on a Qiagen Rotor‐Q Model‐5‐Plex HRM real‐time PCR instrument (Qiagen, Hilden, Germany). SYPRO Orange (Life Technologies Corporation, Eugene, OR, USA) was used as a fluorescent dye at a final concentration of 5x. The protein concentration was 8 µM, and the final compound concentration was 250 µM, corresponding to a protein‐to‐compound ratio of 1:31.25. All compounds were dissolved in dimethyl sulfoxide (DMSO) and the proteins in Tris buffer (25 mM Tris pH 8.0, 150 mM NaCl, 5 mM TCEP, 5% (v/v) DMSO). All measurements were performed after 30 min, 4 h, and 24 h of incubation and at least in triplicate. DSF experiments were carried out with a constant heating rate of 270°C/h. The temperature was ramped from 28°C to 60°C–70°C with excitation and emission filters set at 470 nm and 610 nm, respectively. The melting temperatures (T m) of USP7 and USP7asoc were determined from the maxima of the first derivatives of the melting curves in OriginPro2020 (OriginLab, Northampton, MA, USA). The ∆T m was calculated by subtraction of the T m of the protein sample with pure DMSO from the T m of the protein sample mixed with compound. Error propagation was used to average multiple runs for a compound. A compound was considered to be a hit if the shift in the ∆T m was at least 0.50°C [55].

USP7 [3] = molecular target: T1, USP7; experiment: Intact protein MS (UHPLC-ESI-MS), covalent modification of USP7; conditions: 24 h incubation at 20°C, protein-to-compound ratio 1:31.25
Procedure: The DSF results described above were validated by UHPLC‐ESI‐MS to verify possible covalent binding through a corresponding mass shift. Intact protein MS is an important screening method in irreversible‐covalent hit identification and is especially suitable for covalent fragment‐based drug discovery (FBDD). It allows for the identification of covalent binders by detecting covalent protein‐compound adducts, thus making use of the stability of the covalent bond.
USP7 was prepared in Tris buffer (25 mM Tris pH 8.0, 150 mM NaCl, 5 mM TCEP) with a protein‐to‐compound ratio of 1:31.25 and 5% (v/v) DMSO. The protein‐compound mixtures were all incubated at 20°C for 24 h on a rotating shaker. The analysis of intact protein mass was carried out using UHPLC‐ESI‐MS measurements, with data acquisition and data analysis as previously described.

USP7asoc = molecular target: T3, USP7asoc (Homo sapiens, UniProt Q93009, C300S/C315S/C334S/C478S/C488S/C510S); experiment: Intact protein MS (UHPLC-ESI-MS), covalent modification of USP7asoc; conditions: 24 h incubation at 20°C, protein-to-compound ratio 1:31.25
T3 construct: (208‐560, C300/315/334/448/478/510S); made in house
T3 sequence (Q93009 with tags, fused parts or gaps C300S/C315S/C334S/C478S/C488S/C510S): as the sequence (Q93009 with tags, fused parts or gaps) above, with C96S, C111S, C130S, C274S, C284S, C306S counted along it
Procedure: The DSF results described above were validated by UHPLC‐ESI‐MS to verify possible covalent binding through a corresponding mass shift. Intact protein MS is an important screening method in irreversible‐covalent hit identification and is especially suitable for covalent fragment‐based drug discovery (FBDD). It allows for the identification of covalent binders by detecting covalent protein‐compound adducts, thus making use of the stability of the covalent bond. USP7 was prepared in Tris buffer (25 mM Tris pH 8.0, 150 mM NaCl, 5 mM TCEP) with a protein‐to‐compound ratio of 1:31.25 and 5% (v/v) DMSO. The protein‐compound mixtures were all incubated at 20°C for 24 h on a rotating shaker. The analysis of intact protein mass was carried out using UHPLC‐ESI‐MS measurements, with data acquisition and data analysis as previously described.

| SMILES | ∆T m ± SD USP7 (USP7 [1]; 30 min incubation at 20°C) | ∆T m ± SD USP7asoc ([2]; 30 min incubation at 20°C) | ∆T m ± SD USP7asoc ([2]; 4 h incubation at 20°C) | ∆T m ± SD USP7 (USP7 [1]; 4 h incubation at 20°C) | ∆T m ± SD USP7 (USP7 [1]; 24 h incubation at 20°C) | ∆T m ± SD USP7asoc ([2]; 24 h incubation at 20°C) [°C] | protein species in deconvoluted mass spectrum of USP7 (USP7 [3]) | protein species in deconvoluted mass spectrum of USP7asoc (USP7asoc) |
| --- | --- | --- | --- | --- | --- | --- | --- | --- |
| O=[N+]([O-])c1ccc(F)nc1Nc1cc2c(-c3cnn(CCO)c3)cccc2cn1 [7f, 2‐(4‐{3‐[(6‐Fluoro‐3‐nitropyridin‐2‐yl)amino]isoquinolin‐5‐yl}‐1H‐pyrazol‐1‐yl)ethan‐1‐ol] | 0.00 ± 0.12 °C | 0.48 ± 0.09 °C | –0.23 ± 0.08 °C |  |  |  | single‐arylated USP7 and USP7asoc as a main signal | single‐arylated USP7 and USP7asoc as a main signal |
| O=[N+]([O-])c1ccc(F)nc1Nc1cc2c(-c3ccc(-c4cccnc4)cc3)cccc2cn1 [7h, N‐(6‐Fluoro‐3‐nitropyridin‐2‐yl)‐5‐[4‐(pyridin‐3‐yl)phenyl]isoquinolin‐3‐amine] | 0.00 ± 0.12 °C | 0.30 ± 0 °C | 0.35 ± 0.09 °C | 0.15 ± 0 °C | 0.20 ± 0.09 °C | 0.35 ± 0.04 | the unmodified protein species was again dominant; also recorded: unmodified USP7 and USP7asoc as the main peak | the unmodified protein species was again dominant; also recorded: unmodified USP7 and USP7asoc as the main peak |
| O=[N+]([O-])c1ccc(F)nc1Nc1cc2c(-c3ccc4ccccc4c3)cccc2cn1 [7g, N‐(6‐Fluoro‐3‐nitropyridin‐2‐yl)‐5‐(naphthalen‐2‐yl)isoquinolin‐3‐amine] | 0.10 ± 0.12 °C | 0.63 °C and 0.63 ± 0.07 °C | 0.25 ± 0.10 °C | 0.30 ± 0 °C | 0.25 ± 0.09 °C | 0.38 ± 0.06 | mainly displayed the unmodified USP7 and USP7asoc species | mainly displayed the unmodified USP7 and USP7asoc species |

Now from value to molecule, other results behind:

| ∆T m ± SD USP7 (USP7 [1]; 30 min incubation at 20°C) | ∆T m ± SD USP7asoc ([2]; 30 min incubation at 20°C) | ∆T m ± SD USP7asoc ([2]; 4 h incubation at 20°C) | ∆T m ± SD USP7 (USP7 [1]; 4 h incubation at 20°C) | ∆T m ± SD USP7 (USP7 [1]; 24 h incubation at 20°C) | ∆T m ± SD USP7asoc ([2]; 24 h incubation at 20°C) [°C] | SMILES | protein species in deconvoluted mass spectrum of USP7 (USP7 [3]) | protein species in deconvoluted mass spectrum of USP7asoc (USP7asoc) |
| --- | --- | --- | --- | --- | --- | --- | --- | --- |
| –0.40 ± 0.09 °C |  |  | –0.15 ± 0 °C | –0.15 ± 0 °C |  | O=[N+]([O-])c1ccc(Cl)nc1Nc1cc2c(-c3cnn(C4CC4)c3)cccc2cn1 [8e, N‐(6‐Chloro‐3‐nitropyridin‐2‐yl)‐5‐(1‐cyclopropyl‐1H‐pyrazol‐4‐yl)isoquinolin‐3‐amine] | mainly showed signals for unmodified USP7 and USP7asoc | mainly showed signals for unmodified USP7 and USP7asoc |
|  | –0.30 ± 0 °C | 0.35 ± 0.09 °C | –0.10 ± 0.09 °C | 0.15 ± 0.09 °C | 0.45 ± 0 | Cn1ccc(-c2cccc3cnc(Nc4nc(Cl)ccc4[N+](=O)[O-])cc23)c1 [8b, N‐(6‐Chloro‐3‐nitropyridin‐2‐yl)‐5‐(1‐methyl‐1H‐pyrrol‐3‐yl)isoquinolin‐3‐amine] | unmodified protein species was dominant with an additional smaller signal of the mono‐arylated species | only showed unmodified protein for USP7asoc |
| 0.25 ± 0.09 °C | –0.20 ± 0.09 °C | 0.45 ± 0.12 °C | 0.30 ± 0 °C | 0.25 ± 0.09 °C | 0.42 ± 0.16 | CCCn1cc(-c2cccc3cnc(Nc4nc(Cl)ccc4[N+](=O)[O-])cc23)cn1 [8d, N‐(6‐Chloro‐3‐nitropyridin‐2‐yl)‐5‐(1‐propyl‐1H‐pyrazol‐4‐yl)isoquinolin‐3‐amine] | unmodified USP7 and USP7asoc were again dominant | unmodified USP7 and USP7asoc were again dominant |
| –0.25 ± 0.09 °C | 0.15 ± 0 °C | 0.35 ± 0.09 °C | 0.00 ± 0 °C | 0.05 ± 0.09 °C | 0.28 ± 0.04 | O=[N+]([O-])c1ccc(Cl)nc1Nc1cc2c(-c3ccc(-c4cccnc4)cc3)cccc2cn1 [8h, N‐(6‐Chloro‐3‐nitropyridin‐2‐yl)‐5‐[4‐(pyridin‐3‐yl)phenyl]isoquinolin‐3‐amine] | unmodified USP7 and USP7asoc as the main peak | unmodified USP7 and USP7asoc as the main peak |

Reference: publication PMC12336439 (Archiv Der Pharmazie, 2025)
